Laboratory results taken from patent publication US9023852B2, “1, 2, 4-thiadiazol-5-ylpiperazine derivatives useful in the treatment of neurodegenerative diseases” (Remynd NV, priority 2011, dated 2015).

Legend:
[1] = Microsomal stability assay (intrinsic clearance), rat liver microsomes; format: in vitro ADME; settings: rat in vitro microsomes, second value of Hum/Rat pair
Protocol: (§1) Microsomal Stability Testing—Assay Description
(§2) The microsomal stability assay measures the rate of disappearance of a test compound from an incubation containing human or animal liver microsomes and metabolic cofactors (typically NADPH). The assay is primarily used for ranking the relative CYP-mediated metabolism propensities of compounds within a chemical series and as a guide to selecting sufficiently stable compounds for pharmacokinetics and pharmacodynamics experiments. [In addition to CYPs, microsomally located enzymes which also make use of NADPH (such as […]) and those which require no cofactors (such as carboxylesterases) are active.]
(§3) Incubations are performed in 96-well deep-well plates with a final incubation volume of 600 μL. Incubations contain (finally) 1-2 μM test compound, 0.5 mg/mL liver microsomes (typically human, rat or mouse) and NADPH regenerating system. 50 μL aliquots are removed after 1, 3, 6, 9, 15, 25, 35 and 45 minutes and quenched in 150 μL acetonitrile containing internal standard. Samples are then cooled and centrifuged before analysis by LC-MS/MS.
(§4) Log peak area ratio (test compound peak area/internal standard peak area) is plotted against incubation time and a linear fit made to the data with emphasis upon the initial rate of compound disappearance. The slope of the fit is then used to calculate the intrinsic clearance: Clint(μL/min/mg)=−slope(min^−1)*1000/[protein concentration (mg/mL)]

M17—3TAU(P301L) cells = experiment: Neuroblastoma tauopathy model: inhibition of TAU-induced cytotoxicity (LDH); format: cell-based; settings: Homo sapiens, 168 h; inhibition of TAU-induced toxicity (LDH), 7 days differentiation with retinoic acid
Procedure, shortened: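 BE-M17 neuroblastoma cells stably expressing human TAU-P301L, differentiated with RA (2.5 μM in added medium) for 7 days at 37 °C with compounds at a range of concentrations. Cytotoxicity as supernatant LDH over total LDH (Cytotox 96); EC50 from dose-dependent inhibition curve.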

[2] = Microsomal stability assay (intrinsic clearance), human liver microsomes; format: in vitro ADME; settings: human in vitro microsomes, first value of Hum/Rat pair
Protocol: as §1, §2, §3, §4

Row | microsomal CLint [1] [µL/min/mg] | microsomal CLint [2] [µL/min/mg] | SMILES | EC50 (M17—3TAU(P301L) cells) [nM]
1 | 48 | 19 | Cc1ccc(-c2nsc(N3CCN(Cc4ccc5c(c4)OCO5)CC3)n2)cc1 [Example 2, 1-Benzo[1,3]dioxol-5-ylmethyl-4-(3-p-tolyl-[1,2,4]thiadiazol-5-yl)-piperazine] | 587
2 | 482 | 39 | Fc1ccc(Cc2nsc(N3CCN(Cc4ccc5c(c4)OCO5)CC3)n2)cc1 [reference compound] | –
3 | 23 | 12 | Fc1cccc(-c2nsc(N3CCN(CCc4ccc(Cl)cc4)CC3)n2)c1 [Example 88, 1-[2-(4-Chloro-phenyl)-ethyl]-4-[3-(3-fluoro-phenyl)-[1,2,4]thiadiazol-5-yl]-piperazine] | 121
4 | 103 | 46 | O=S(=O)(c1ccc(OC(F)(F)F)cc1)N1CCN(c2nc(Cc3ccc(F)cc3)ns2)CC1 [reference compound] | –
